From US3984395A, “Method of isolating gentamicin C2a” (Schering Corporation, priority 1974, dated 1976) come the findings set out here.

Series [1] is described as follows: acute intravenous LD50 in mice. The settings on record: mouse, in vivo, male CF-1 mice, 20 grams each.
Series [2] has as its system Staphylococcus aureus 6538P. In words: in vitro MIC, standard tube dilution method. It counts as cell-based. The settings on record: Mueller-Hinton broth, read-out: minimal inhibitory concentration (MIC). The source says:
(§1) In Table 1, set forth below is shown the in vitro minimal inhibitory concentration (MIC) of gentamicin C2a against representative gram-positive and gram-negative bacteria. The results are derived using the standard tube dilution method in Mueller-Hinton broth.

For series [3], the system named is Staphylococcus aureus 59N. In words: in vitro MIC, standard tube dilution method. It counts as cell-based. The settings on record: Mueller-Hinton broth, read-out: minimal inhibitory concentration (MIC).
Description: as §1

The next series deals with Escherichia coli JR66. Briefly: in vitro MIC, standard tube dilution method. It counts as cell-based. The settings on record: Mueller-Hinton broth, read-out: minimal inhibitory concentration (MIC).
Description: as §1

Series [4] has as its system Staphylococcus aureus Ziegler. Briefly: in vitro MIC, standard tube dilution method. It counts as cell-based. The settings on record: Mueller-Hinton broth, read-out: minimal inhibitory concentration (MIC).
Description: as §1

For series [5], the system named is Pseudomonas aeruginosa St 138. In words: in vitro MIC, standard tube dilution method. The format is cell-based. The settings on record: ST138; Pseudomonas aeruginosa St 138 (Gentamicin resistant); Mueller-Hinton broth; read-out: minimal inhibitory concentration (MIC).
Description: as §1

In series [6] the test system is Escherichia coli La290R55. In words: in vitro MIC, standard tube dilution method. It counts as cell-based. The settings on record: LA290R55, read-out: minimal inhibitory concentration (MIC).
Description: as §1

Series [7] concerns Pseudomonas aeruginosa 20. In words: in vitro MIC, standard tube dilution method. It counts as cell-based. The settings on record: Mueller-Hinton broth, read-out: minimal inhibitory concentration (MIC).
Description: as §1

In the next series the test system is Bacillus subtilis 663. Briefly: in vitro MIC, standard tube dilution method. It counts as cell-based. The settings on record: Mueller-Hinton broth, read-out: minimal inhibitory concentration (MIC).
Description: as §1

Series [8] relates to Pseudomonas aeruginosa 762. In words: in vitro MIC, standard tube dilution method. The settings on record: Mueller-Hinton broth, read-out: minimal inhibitory concentration (MIC). It counts as cell-based.
Description: as §1

The subject of a further series is Klebsiella pneumoniae 17. In words: in vitro MIC, standard tube dilution method. The format is cell-based. The settings on record: Mueller-Hinton broth, read-out: minimal inhibitory concentration (MIC).
Description: as §1

Series [9] has as its system Pseudomonas aeruginosa Travers. In words: in vitro MIC, standard tube dilution method. The format is cell-based. The settings on record: Pseudomonas aeruginosa Travers (Gentamicin resistant); Mueller-Hinton broth; read-out: minimal inhibitory concentration (MIC).
Description: as §1

Series [10] concerns Escherichia coli ATCC 10536. Briefly: in vitro MIC, standard tube dilution method. The format is cell-based. The settings on record: ATCC10536, Mueller-Hinton broth, read-out: minimal inhibitory concentration (MIC).
Description: as §1

For series [11], the system named is Klebsiella pneumoniae 3694. Briefly: in vitro MIC, standard tube dilution method. The format is cell-based. The settings on record: Mueller-Hinton broth, read-out: minimal inhibitory concentration (MIC).
Description: as §1

The test system of series [12] is Pseudomonas aeruginosa 3223. In words: in vitro MIC, standard tube dilution method. The format is cell-based. The settings on record: Mueller-Hinton broth, read-out: minimal inhibitory concentration (MIC).
Description: as §1

A further series concerns Streptococcus pyogenes C. Briefly: in vitro MIC, standard tube dilution method. The format is cell-based. The settings on record: Mueller-Hinton broth, read-out: minimal inhibitory concentration (MIC).
Description: as §1

For the next series, the system named is Salmonella typhi. B. In words: in vitro MIC, standard tube dilution method. The format is cell-based. The settings on record: Salmonella enterica, read-out: minimal inhibitory concentration (MIC).
Description: as §1

Series [13] has as its system gram-positive and gram-negative bacteria. Briefly: antibacterial spectrum in vitro. The settings on record: compared with gentamicin C1, C1a, and C2. The format is cell-based.
Description: Thus, the antiobiotic may be used for substantially the same anti-bacterial indications and in the same manner as disclosed in U.S. Pat. No. 3,091,572. For example, it is useful in wash solutions, for sanitary purposes, as in the washing of hands and the cleaning of equipment in contaminated rooms.
as §1

Converted amounts (≈) assume the structure as drawn.

One may read the LD50 as the dose expected to kill half of the subjects tested.

Turning to `CN[C@@H]1[C@@H](O)[C@@H](O[C@@H]2[C@@H](O)[C@H](O[C@H]3O[C@H]([C@@H](C)N)CC[C@H]3N)[C@@H](N)C[C@H]2N)OC[C@]1(C)O` [gentamicin C2], in [1], the LD50 amounted to 83 mg/kg.
Consider `CN[C@@H]1[C@@H](O)[C@@H](O[C@@H]2[C@@H](O)[C@H](O[C@H]3O[C@H]([C@H](C)N)CC[C@H]3N)[C@@H](N)C[C@H]2N)OC[C@]1(C)O` [gentamicin C2a], for which the MIC in [2] is 0.3 µg/mL (≈ 0.647 µM); in series [3] it was 0.3 µg/mL (≈ 0.647 µM); in the series with Escherichia coli JR66, 7.5 µg/mL (≈ 16.2 µM); in [4], 0.3 µg/mL (≈ 0.647 µM); in [5], above 25 µg/mL; in series [6], 17.5 µg/mL (≈ 37.8 µM). In addition, the MIC in series [7] was 3 µg/mL (≈ 6.47 µM); in the series with Bacillus subtilis 663, 0.1 µg/mL (≈ 0.216 µM); in [8] it was 0.8 µg/mL (≈ 1.73 µM); in the series on Klebsiella pneumoniae 17, 0.8 µg/mL (≈ 1.73 µM); in [9], above 25 µg/mL; in [10], 0.3 µg/mL (≈ 0.647 µM). Besides, the MIC in series [11] worked out at 17.5 µg/mL (≈ 37.8 µM); in series [12], 0.3 µg/mL (≈ 0.647 µM); with Streptococcus pyogenes C, 7.5 µg/mL (≈ 16.2 µM); with Salmonella typhi. B. it was 0.3 µg/mL (≈ 0.647 µM). In series [1], this compound returned an LD50 of 110 mg/kg. Besides, the “antibacterial spectrum in vitro” value in series [13] was “substantially the same antibacterial spectrum in vitro as do gentamicin C1, C1a, and C2”.
